Target: RAF proto-oncogene serine/threonine-protein kinase (Homo sapiens, UniProt P04049)
Assay: Kinase Assay: Protein kinase assay: Assay platform was used to measure kinase/inhibitor interactions as described previously (Anastassiadis et al., 2011). In brief, for each reaction, kinase and substrate were mixed in a buffer containing 20 mM HEPES (pH 7.5), 10 mM MgCl2, 1 mM EGTA, 0.02% Brij35, 0.02 mg/mL BSA, 0.1 mM Na3VO4, 2 mM DTT, and 1% DMSO. All compounds were solubilized in DMSO. Compounds were then added to each reaction mixture via acoustic dispense using an ECHO 550 nanoliter dispenser. For human RAF1 testing, human MEK1 (K97R) was used as a substrate at a concentration of 3 micromolar, with a final ATP concentration of 10 micromolar. For human BRAF testing, human MEK1 (K97R) was used as a substrate at 1 micromolar concentration, with a final ATP concentration of 25 micromolar. […] After a 20-min incubation, ATP (Sigma-Aldrich, St. Louis, Mo. 63178) and [g33P] ATP (specific activity 10 microCi/microliter) purchased at PerkinElmer (Boston, Mass., 02118 Cat #BLU 003H250UC) were added at a final total concentration of 10 mM. Reactions were carried out at room temperature for 2 hr and spotted onto P81 ion exchange cellulose chromatography paper (Reaction Biology). Filter paper was washed in 0.75% phosphoric acid to remove unincorporated ATP. The percent remaining kinase activity relative to a vehicle-containing (DMSO) kinase reaction was calculated for each kinase/inhibitor pair. […]

Sequence of RAF proto-oncogene serine/threonine-protein kinase (P04049 whole entry): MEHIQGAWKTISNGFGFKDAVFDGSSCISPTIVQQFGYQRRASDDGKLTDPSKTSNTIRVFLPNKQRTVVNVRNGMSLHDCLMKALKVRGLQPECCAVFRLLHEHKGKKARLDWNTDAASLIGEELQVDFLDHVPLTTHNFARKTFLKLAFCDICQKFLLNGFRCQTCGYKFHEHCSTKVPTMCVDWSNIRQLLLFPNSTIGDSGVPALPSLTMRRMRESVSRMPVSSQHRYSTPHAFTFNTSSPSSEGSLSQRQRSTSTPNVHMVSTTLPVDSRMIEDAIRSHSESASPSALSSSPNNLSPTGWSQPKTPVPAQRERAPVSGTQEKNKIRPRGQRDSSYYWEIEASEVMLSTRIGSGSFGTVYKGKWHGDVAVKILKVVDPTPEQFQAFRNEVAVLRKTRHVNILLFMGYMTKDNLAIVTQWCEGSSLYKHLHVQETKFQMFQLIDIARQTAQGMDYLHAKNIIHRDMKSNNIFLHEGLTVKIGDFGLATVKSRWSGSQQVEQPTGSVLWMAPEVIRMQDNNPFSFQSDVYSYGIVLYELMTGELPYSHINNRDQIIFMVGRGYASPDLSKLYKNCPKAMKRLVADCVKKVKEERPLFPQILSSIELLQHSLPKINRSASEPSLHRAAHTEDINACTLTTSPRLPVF

IC50: < 0.01 µM
SMILES: CNc1ncc2cc(-c3cc(NC(=O)N4CC[C@H](C(F)(F)F)C4)c(F)cc3C)c(C)nc2n1

— ChEMBL document CHEMBL5729738, “Inhibitors of RAF kinases” (2023)
